# Assays:
# [1] = tested on: PC3M-luc cells; assay: Subcutaneous tumor model (spontaneous metastasis), PC3M-luc xenograft, bioluminescence imaging; assay type: in vivo, SCID/beige mice; conditions: cells pre-treated 24 h with 1 micromolar
# Procedure: PC3M-luc cells were pre-treated for 24 hrs with 1 micromolar C90, then trypsinized, washed in PBS and spun down at 650 rpm to be resuspended in HBSS at the appropriate cell density for injection (1×10^6 cells). Injection was boosted with 10 micromolar C-90. Cell where then injected in the right flank SCID/beige mice (Taconic Inc., Germantown, N.Y.). On indicated days, mice were injected with 150 mg/kg of D-luciferin (potassium salt, Xenogen Corp., Alameda, Calif.) and placed for imaging in the In vivo Imaging System (Xenogen) with total imaging time of 1 or 5 minutes. Total body bioluminescence was quantified by integrating the photonic flux (photons per second) through a region of interest drawn around each mouse.
# Cells prepared for xenograft injections were pretreated with C-90 for 24 h. Cells were injected in to mice (5 per group) by either tail vein (B16-luc, induced metastasis model) or subcutaneously (PC3M-luc, spontaneous metastasis model). Imaging of the PC3M cell metastases in lungs ex vivo (FIG. 14A)) correlated with earlier scans of intact animals (data not shown). Units are proportional to photons emitted within a defined time interval (total flux).
# [2] = tested on: HMEC-1 cells; assay: HMEC-1 cell migration, modified Boyden chamber; assay type: cell-based, human; conditions: VEGF
# Procedure: (§1) The migration assay of HUVE and HMEC-1 cells in modified Boyden chambers was adapted from previously described procedures (Murohara et al., Thromb. Vasc. Biol., 19: 1156-61 (1999), Malinda et al., FASEB J., 13: 53-62 (1999)). In brief, Biocoat Cell Environment control inserts (8 micron pore size; Becton Dickinson) were coated with 0.1% gelatin (Sigma) for at least 1 hour at 37° C. and air dried. Lower chambers contained 0.7 ml RPMI+0.1% BSA, to which 20 ng/ml HGF and/or 300 nM Grb2 inhibitors were added. Cells were pre-treated with the indicated concentrations of Grb2 inhibitors for 18-24 hours, trypsinized, washed twice in RPMI+0.1% BSA, added to upper chambers (5×10^4 cells/well) with or without inhibitors in a final volume of 0.5 ml, and incubated for 4 h at 37° C. Cells on the upper surface of each filter were removed with a cotton swab, while cells that had traversed to the bottom surface of the filter were fixed and stained using Diff-Quik (Dade Diagnostics) and counted using a 10× objective. Mean values from 4 randomly selected fields (1×1.4 mm) were calculated for each of triplicate wells per experimental condition. Shown in FIG. 6 is the ratio of growth factor-treated to control migrating cells designated on the y-axis as “Migration (Fold Increase)” or as the mean number of cells per optical field in FIGS. 8-11.
# [3] = tested on: B16 mouse melanoma cells; assay: Growth rate and viability in culture of C-90 treated B16 cells; assay type: cell-based; conditions: same study period
# [4] = tested on: HUVE cells; assay: HUVE cell migration, modified Boyden chamber; assay type: cell-based, human
# Procedure: as §1
# [5] = tested on: HMVE cells; assay: HMVE cell proliferation; assay type: cell-based, human
# Procedure: HUVE or HMVE cells were seeded per triplicate in type I collagen-coated 48-well plates (Biocoat) (3000 cells/well) in […] of complete EGM-Bullet Kit medium (BioWhittaker, Walkersville, Md.), allowed to attach for 4 hr and incubated overnight with or without the indicated concentrations of peptide 2. The cultures were rinsed twice in serum-free medium and incubated with EBM medium (BioWhittaker) supplemented with 50 μg/ml heparin, 50 μg/ml ascorbic acid and 10% FCS. After either 4 days (HUVE) or 5 days (HMVE), cells were harvested with trypsin/EDTA and counted with an hemocytometer. The mean number of cells per ml was calculated from 3 independent measures for each of triplicate wells per experimental condition and compared to controls using the Student's unpaired t-test. Results set forth in FIG. 12 are described as the ratio of growth factor-treated to control proliferating cells designated on the y-axis as “Proliferation (Fold Increase)”.
# [6] = tested on: PC3M cells; assay: PC3M cell invasion across Matrigel-coated Transwell filters; assay type: cell-based, human; conditions: increasing concentrations, with or without HGF 40 ng/ml, 30 h
# Procedure: After serum deprivation and pre-treatment for 16 hrs, PC3M cells were assayed in cell culture inserts (BD Biosciences), 8 micron-pore-size polyethylene terephthalate membrane with Falcon cell culture inserts (Becton Dickinson). Pre-treated cells were trypsinized and counted; a total of 1×10^5 cells in serum free medium (500 microliters) were added to the upper chamber, and 500 microliters of serum free media with the relative concentration of C90 and HGF were added to the lower chamber. […] Then the cells in the inside of the upper chamber were removed with a cotton swab and cell on the other side of the membrane were fixed and stained using Diff-Quick (Dade Diagnostics, Deerfield, Ill.). Photographs of […] random fields were taken and cells were counted by bright field microscopy using a 10× objective. Mean values from four randomly selected fields (1×1.4 mm) were calculated for each of triplicate wells per experimental condition.
# FIG. 13B depicts bar graphs of PC3M cell invasion across Matrigel-coated Transwell filters in the presence (filled bars) or absence (unfilled bars) of HGF (40 ng/ml, 30 h).
# [7] = tested on: PC3M cells; assay: Growth rate and viability in culture of C-90 treated PC3M cells; assay type: cell-based, human; conditions: treated 24 h, three week study period
# [8] = tested on: MDCK cells; assay: Extracellular matrix invasion assay, MDCK cells in collagen gels; assay type: cell-based, canine; conditions: HGF 10 ng/ml, peptide 100 nM, 5 days
# Procedure: MDCK cell invasion into three-dimensional collagen gels was analyzed as previously described. Briefly, type I collagen (1.5 mg/ml; Cohesion Technologies) was mixed with 10×MEM and sodium bicarbonate (11.76 mg/ml) at a ratio of 8:1:1 (vol:vol:vol) on ice, and 0.4 ml aliquots were dispensed into 16-mm tissue culture wells (Nunc), and allowed to gel at 37° C. for 20 min. Cells were seeded onto gels (1×10^4 cells/well) in 0.4 ml of growth medium containing HGF and/or peptides 1 or 4 as indicated. After 5 days, cells were fixed in situ in 2.5% glutaraldehyde in 0.1 M sodium cacodylate buffer (pH 7.4), and cells that had invaded the gel below the surface monolayer in ten randomly selected fields (1×1.4 mm) were counted microscopically using a 20× phase contrast objective. Depth of cellular invasion into the collagen gel was quantitated in the same ten fields per treatment group using a calibrated fine focusing micrometer. Values were compared using the Student's unpaired t-test and a significant value was taken as P<0.001. Results in Table 1 are shown as the mean number of invading cells/field or mean invasion depth/cell in microns+standard error of the mean.
# MDCK cells were left untreated (Control), treated with HGF (10 ng/ml), or HGF+peptide 2 or 4 (100 nM), and invasion into collagen matrices was quantitated microscopically as described above. Values are the mean of at least 10 randomly selected fields±standard error of the mean. Epithelial Tube Formation Assay
structure (smiles),measurement,setting,value
"NC(=O)C[C@H](NC(=O)C1(NC(=O)[C@H](Cc2ccc(C(C(=O)O)C(=O)O)cc2)NC(=O)C(=O)O)CCCCC1)C(=O)NCCCc1cccc2ccccc12 [peptide 2, (N-oxalyl-4-malonyl)-Phe-Ac6c-Asn-NH-(3-naphthalen-1-yl-propyl)]","primary tumor growth (mass, volume ex vivo)",[1],did not affect primary tumor growth
same,"metastatic rate (lung metastases ex vivo, total flux) relative to untreated control cells",[1]; injection boosted with 10 micromolar,significantly reduced the metastatic rate
same,VEGF-induced cell migration,[2],significantly (p<0.001) reverted
same,cell viability or growth rate in culture,[3],no differences in cell viability or growth rate
same,VEGF-induced cell migration,[4]; VEGF,significantly (p<0.001) reverted
same,PMA-induced cell migration,"[4]; peptide 300 nM, PMA 40 ng/ml",dramatically reverted to basal levels
same,HMVE cell growth,"[5]; peptide 30 nM, presence and absence of growth factors",basically resistant
same,HMVE cell growth,[5]; peptide 300 nM,highly significant (p<0.001) inhibition of cell growth
same,PC3M cell invasiveness in vitro,[6],dose-dependent inhibition
same,growth rate and viability in culture,[7],identical growth rate and viability as untreated cells
same,Mean Invading Cells/Field,[8],12.6 ± 1.9
same,Mean Invasion Depth/Cell,[8],17.9 ± 1.9 μm
